{
  "source": "patent US11642348B2",
  "about": "“Substituted benzene compounds” (Epizyme, Inc., priority 2012, dated 2023)",
  "key": {"WSU-DLCL2 cells": {"system": "WSU-DLCL2 cells", "test": "Cell proliferation analysis (WSU-DLCL2, Cell Titer Glo)", "assay_type": "cell-based", "conditions": "Homo sapiens, WSUDLCL2, Table 3A, 6 days, read-out: WSU Prolif. IC50", "from_the_text": "Cell Proliferation Analysis\nWSU-DLCL2 suspension cells were purchased from DSMZ (German Collection of Microorganisms and Cell Cultures, Braunschweig, Germany). RPMI/Glutamax Medium, Penicillin-Streptomycin, Heat Inactivated Fetal Bovine Serum were purchased from Life Technologies, Grand Island, N.Y., USA. V-bottom polypropylene 384-well plates were purchased from Greiner Bio-One, Monroe, N.C., USA. Cell culture 384-well white opaque plates were purchased from Perkin Elmer, Waltham, Mass., USA. Cell-Titer Glo® was purchased from Promega Corporation, Madison, Wis., USA. SpectraMax M5 plate reader was purchased from Molecular Devices LLC, Sunnyvale, Calif., USA.\nA compound source plate was prepared by performing triplicate nine-point 3-fold serial dilutions in DMSO, beginning at 10 mM (final top concentration of compound in the assay was 20 μM and the DMSO was 0.2%). A 100 nL aliquot from the compound stock plate was added to its respective well in the cell plate. […] After addition of compounds, assay plates were incubated for 6 days at 37° C., 5% CO2, relative humidity >90% for 6 days. Cell viability was measured by quantization of ATP present in the cell cultures, adding 35 μl of Cell Titer Glo® reagent to the cell plates. Luminescence was read in the SpectraMax M5. The concentration inhibiting cell viability by 50% was determined using a 4-parametric fit of the normalized dose response curves."}, "[1]": {"molecular_target": "wild-type EZH2 (PRC2 complex) (Homo sapiens (Human), UniProt Q15910)", "sequence (Q15910 other isoform, or with tags, fused parts or gaps)": "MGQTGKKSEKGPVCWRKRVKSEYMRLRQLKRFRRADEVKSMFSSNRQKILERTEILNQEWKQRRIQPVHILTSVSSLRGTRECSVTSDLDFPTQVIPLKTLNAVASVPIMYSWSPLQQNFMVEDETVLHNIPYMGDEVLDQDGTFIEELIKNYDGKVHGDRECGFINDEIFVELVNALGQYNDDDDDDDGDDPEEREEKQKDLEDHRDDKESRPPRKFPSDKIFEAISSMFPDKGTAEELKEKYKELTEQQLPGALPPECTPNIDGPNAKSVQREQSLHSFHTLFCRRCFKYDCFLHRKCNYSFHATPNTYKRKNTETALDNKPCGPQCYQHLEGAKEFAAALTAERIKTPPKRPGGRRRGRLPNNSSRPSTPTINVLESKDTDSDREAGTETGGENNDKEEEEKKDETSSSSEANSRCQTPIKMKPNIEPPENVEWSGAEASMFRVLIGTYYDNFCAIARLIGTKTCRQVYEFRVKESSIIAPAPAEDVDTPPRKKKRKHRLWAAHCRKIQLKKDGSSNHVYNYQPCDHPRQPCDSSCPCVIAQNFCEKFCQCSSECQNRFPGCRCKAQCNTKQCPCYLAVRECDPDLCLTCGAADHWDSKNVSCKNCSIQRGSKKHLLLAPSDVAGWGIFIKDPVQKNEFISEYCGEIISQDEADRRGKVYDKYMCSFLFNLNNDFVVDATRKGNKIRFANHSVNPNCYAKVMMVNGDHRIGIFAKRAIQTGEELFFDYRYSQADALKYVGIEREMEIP", "sequence (O75530 whole entry partner)": "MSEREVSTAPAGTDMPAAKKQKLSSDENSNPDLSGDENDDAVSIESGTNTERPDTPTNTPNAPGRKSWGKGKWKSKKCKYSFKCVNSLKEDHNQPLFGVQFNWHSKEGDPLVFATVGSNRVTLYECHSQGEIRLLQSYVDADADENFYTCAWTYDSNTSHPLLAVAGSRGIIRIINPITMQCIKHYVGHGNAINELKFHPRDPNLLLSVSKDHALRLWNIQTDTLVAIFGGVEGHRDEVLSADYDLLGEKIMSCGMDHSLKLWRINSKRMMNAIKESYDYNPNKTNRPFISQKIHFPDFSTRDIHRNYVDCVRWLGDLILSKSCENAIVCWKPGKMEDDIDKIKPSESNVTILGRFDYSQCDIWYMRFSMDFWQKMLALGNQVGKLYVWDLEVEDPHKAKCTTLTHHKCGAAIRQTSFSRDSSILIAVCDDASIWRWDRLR", "sequence (Q15022 whole entry partner)": "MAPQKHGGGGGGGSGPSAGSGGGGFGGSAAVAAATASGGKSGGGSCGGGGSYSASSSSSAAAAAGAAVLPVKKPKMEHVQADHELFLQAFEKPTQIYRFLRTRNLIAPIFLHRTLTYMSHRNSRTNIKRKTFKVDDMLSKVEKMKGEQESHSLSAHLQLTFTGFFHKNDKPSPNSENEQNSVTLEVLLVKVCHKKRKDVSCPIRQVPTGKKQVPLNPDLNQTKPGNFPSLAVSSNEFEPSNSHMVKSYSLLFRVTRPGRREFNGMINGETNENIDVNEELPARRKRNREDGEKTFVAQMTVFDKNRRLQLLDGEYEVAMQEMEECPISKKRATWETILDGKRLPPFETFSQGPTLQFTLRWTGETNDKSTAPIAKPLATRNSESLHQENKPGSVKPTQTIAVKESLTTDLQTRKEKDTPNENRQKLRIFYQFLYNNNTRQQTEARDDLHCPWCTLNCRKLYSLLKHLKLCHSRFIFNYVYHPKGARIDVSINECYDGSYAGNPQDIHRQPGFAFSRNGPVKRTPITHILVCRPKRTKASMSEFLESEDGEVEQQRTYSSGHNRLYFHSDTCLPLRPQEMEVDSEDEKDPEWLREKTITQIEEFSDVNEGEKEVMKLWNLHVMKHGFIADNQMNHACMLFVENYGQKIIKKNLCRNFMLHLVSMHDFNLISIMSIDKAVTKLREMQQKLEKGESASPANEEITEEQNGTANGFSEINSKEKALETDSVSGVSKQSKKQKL", "sequence (Q09028 whole entry partner)": "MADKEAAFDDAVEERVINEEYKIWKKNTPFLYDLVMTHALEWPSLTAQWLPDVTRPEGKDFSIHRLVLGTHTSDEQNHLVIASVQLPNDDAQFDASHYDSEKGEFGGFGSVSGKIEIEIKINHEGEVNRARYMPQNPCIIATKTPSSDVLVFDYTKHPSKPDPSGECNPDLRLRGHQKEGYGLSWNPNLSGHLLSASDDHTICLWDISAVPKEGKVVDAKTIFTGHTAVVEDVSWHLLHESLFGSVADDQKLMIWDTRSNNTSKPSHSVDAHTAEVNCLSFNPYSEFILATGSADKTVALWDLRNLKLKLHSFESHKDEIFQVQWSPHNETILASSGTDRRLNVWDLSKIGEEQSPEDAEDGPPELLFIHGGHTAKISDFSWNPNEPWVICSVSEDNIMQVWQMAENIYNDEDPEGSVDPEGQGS", "test": "PRC2 enzyme assay on peptide substrates (wild-type EZH2)"}, "[2]": {"system": "H3K27me3 in WSU-DLCL2 cells", "test": "WSU-DLCL2 methylation assay (H3K27me3 ELISA)", "assay_type": "cell-based", "conditions": "Homo sapiens, WSUDLCL2, Table 3A, 96 hours, read-out: H3K27Me3 ELISA IC50", "from_the_text": "WSU-DLCL2 suspension cells were purchased from DSMZ (German Collection of Microorganisms and Cell Cultures, Braunschweig, Germany). RPMI/Glutamax Medium, Penicillin-Streptomycin, Heat Inactivated Fetal Bovine Serum, and D-PBS were purchased from Life Technologies, Grand Island, N.Y., USA. Extraction Buffer and Neutralization Buffer (5×) were purchased from Active Motif, Carlsbad, Calif., USA. Rabbit anti-Histone H3 antibody was purchased from Abcam, Cambridge, Mass., USA. Rabbit anti-H3K27me3 and HRP-conjugated anti-rabbit-IgG were purchased from Cell Signaling Technology, Danvers, Mass., USA. TMB “Super Sensitive” substrate was sourced from BioFX Laboratories, Owings Mills, Md., USA. IgG-free Bovine Serum Albumin was purchased from Jackson ImmunoResearch, West Grove, Pa., USA. PBS with Tween (10×PBST) was purchased from KPL, Gaithersburg, Md., USA. Sulfuric Acid was purchased from Ricca Chemical, Arlington, Tex., USA. Immulon ELISA plates were purchased from Thermo, Rochester, N.Y., USA. V-bottom cell culture plates were purchased from Corning Inc., Corning, N.Y., USA. V-bottom polypropylene plates were purchased from Greiner Bio-One, Monroe, N.C., USA.\nWSU-DLCL2 cells were seeded in assay medium at a concentration of 50,000 cells per mL to a 96-well V-bottom cell culture plate with 200 μL per well. […] Plates were incubated on a titer-plate shaker at 37° C., 5% CO2 for 96 hours. After four days of incubation, plates were spun at 241×g for five minutes and medium was aspirated gently from each well of cell plate without disturbing cell pellet. Pellet was resuspended in 200 μL DPBS and plates were spun again at 241×g for five minutes. The supernatant was aspirated and cold (4° C.) Extraction buffer (100 μL) was added per well. Plates were incubated at 4° C. on orbital shaker for two hours. […] Supernatant (80 μL per well) was transferred to its respective well in 96 well V-bottom polypropylene plate. Neutralization Buffer 5× (20 μL per well) was added to V-bottom polypropylene plate containing supernatant. V-bottom polypropylene plates containing crude histone preparation (CHP) were incubated on orbital shaker×five minutes. Crude Histone Preparations were added (2 μL per well) to each respective well into duplicate 96 well ELISA plates containing 100 μL Coating Buffer (1×PBS+BSA 0.05% w/v). Plates were sealed and incubated overnight at 4° C. The following day, plates were washed three times with 300 μL per well 1×PBST. […] For H3K27me3 detection, 100 μL of HRP conjugated anti-rabbit IgG antibody diluted to 1:4000 in ELISA diluent was added per well. Plates were incubated at room temperature for 90 minutes. […] TMB substrate 100 μL was added per well. Histone H3 plates were incubated for five minutes at room temperature. H3K27me3 plates were incubated for 10 minutes at room temperature. The reaction was stopped with sulfuric acid 1N (100 μL per well). Absorbance for each plate was read at 450 nm.\nEach plate included eight control wells of DMSO only treatment (Minimum Inhibition) as well as eight control wells for maximum inhibition (Background wells).\nThe average of the ratio values for each control type was calculated and used to determine the percent inhibition for each test well in the plate. […] Percent inhibition was determined and IC50 curves were generated using duplicate wells per concentration of compound."}},
  "data": [
    {"molecule": "CCN(c1cc(-c2ccc(OCCO)cc2)cc(C(=O)NCc2c(C)cc(C)[nH]c2=O)c1C)[C@H]1CC[C@H](N(C)C)CC1", "note": "[Compound 3, N-((4,6-dimethyl-2-oxo-1,2-dihydropyridin-3-yl)methyl)-5-(((trans)-4-(dimethylamino)cyclohexyl)(ethyl)amino)-4′-(2-hydroxyethoxy)-4-methyl-[1,1′-biphenyl]-3-carboxamide]", "values": [
      {"measurement": "IC50", "setting": "WSU-DLCL2 cells", "value": 0.186, "unit": "µM"},
      {"measurement": "IC50", "setting": "[1]", "value": 0.0113, "unit": "µM"}
    ]},
    {"molecule": "CCN(c1cc(-c2ccc(OCCO)nc2)cc(C(=O)NCc2c(C)cc(C)[nH]c2=O)c1C)[C@H]1CC[C@H](N(C)C)CC1", "note": "[Compound 4, N-((4,6-dimethyl-2-oxo-1,2-dihydropyridin-3-yl)methyl)-3-(((trans)-4-(dimethylamino)cyclohexyl)(ethyl)amino)-5-(6-(2-hydroxyethoxy)pyridin-3-yl)-2-methylbenzamide]", "values": [
      {"measurement": "IC50", "setting": "[2]", "value": 21.8, "unit": "µM"},
      {"measurement": "IC50", "setting": "WSU-DLCL2 cells", "value": 23.6, "unit": "µM"},
      {"measurement": "IC50", "setting": "[1]", "value": 0.0089, "unit": "µM"}
    ]},
    {"molecule": "CCN(c1cc(C#CCN2CCN(C)CC2)cc(C(=O)NCc2c(C)cc(C)[nH]c2=O)c1C)[C@H]1CC[C@H](N(C)CCOC)CC1", "note": "[Compound 7, N-((4,6-dimethyl-2-oxo-1,2-dihydropyridin-3-yl)methyl)-3-(ethyl((trans)-4-((2-methoxyethyl)(methyl)amino)cyclohexyl)amino)-2-methyl-5-(3-(4-methylpiperazin-1-yl)prop-1-yn-1-yl)benzamide]", "values": [
      {"measurement": "IC50", "setting": "[2]", "value": 0.458, "unit": "µM"},
      {"measurement": "IC50", "setting": "WSU-DLCL2 cells", "value": 0.651, "unit": "µM"},
      {"measurement": "IC50", "setting": "[1]", "value": 0.021, "unit": "µM"}
    ]},
    {"molecule": "CCN(c1cc(C#CC(C)(C)O)cc(C(=O)NCc2c(C)cc(C)[nH]c2=O)c1C)[C@H]1CC[C@H](N(C)CCOC)CC1", "note": "[Compound 8, N-((4,6-dimethyl-2-oxo-1,2-dihydropyridin-3-yl)methyl)-3-(ethyl((trans)-4-((2-methoxyethyl)(methyl)amino)cyclohexyl)amino)-5-(3-hydroxy-3-methylbut-1-yn-1-yl)-2-methylbenzamide]", "values": [
      {"measurement": "IC50", "setting": "[2]", "value": 0.292, "unit": "µM"},
      {"measurement": "IC50", "setting": "WSU-DLCL2 cells", "value": 0.11, "unit": "µM"},
      {"measurement": "IC50", "setting": "[1]", "value": 0.00882, "unit": "µM"}
    ]},
    {"molecule": "CCN(c1cc(F)cc(C(=O)NCc2c(C)cc(C)[nH]c2=O)c1C)[C@H]1CC[C@H](N(C)CCOC)CC1", "note": "[Compound 9, N-((4,6-dimethyl-2-oxo-1,2-dihydropyridin-3-yl)methyl)-3-(ethyl((trans)-4-((2-methoxyethyl)(methyl)amino)cyclohexyl)amino)-5-fluoro-2-methylbenzamide]", "values": [
      {"measurement": "IC50", "setting": "[2]", "value": 0.515, "unit": "µM"},
      {"measurement": "IC50", "setting": "WSU-DLCL2 cells", "value": 1.31, "unit": "µM"},
      {"measurement": "IC50", "setting": "[1]", "value": 0.0053, "unit": "µM"}
    ]},
    {"molecule": "CCN(c1cccc(C(=O)NCc2c(C)cc(C)[nH]c2=O)c1C)[C@H]1CC[C@H](N(C)CCOC)CC1", "note": "[Compound 10, N-((4,6-dimethyl-2-oxo-1,2-dihydropyridin-3-yl)methyl)-3-(ethyl((trans)-4-((2-methoxyethyl)(methyl)amino)cyclohexyl)amino)-2-methylbenzamide]", "values": [
      {"measurement": "IC50", "setting": "[2]", "value": 0.469, "unit": "µM"},
      {"measurement": "IC50", "setting": "WSU-DLCL2 cells", "value": 0.307, "unit": "µM"},
      {"measurement": "IC50", "setting": "[1]", "value": 0.00736, "unit": "µM"}
    ]},
    {"molecule": "CCN(c1cc(-c2ccc(C)nc2)cc(C(=O)NCc2c(C)cc(C)[nH]c2=O)c1C)[C@H]1CC[C@H](N(C)CCOC)CC1", "note": "[Compound 15]", "values": [
      {"measurement": "IC50", "setting": "[2]", "value": 0.34, "unit": "µM"},
      {"measurement": "IC50", "setting": "WSU-DLCL2 cells", "value": 0.346, "unit": "µM"},
      {"measurement": "IC50", "setting": "[1]", "value": 0.00486, "unit": "µM"}
    ]},
    {"molecule": "CCN(c1cc(-c2ccc(OC)nc2)cc(C(=O)NCc2c(C)cc(C)[nH]c2=O)c1C)[C@H]1CC[C@H](N(C)CCOC)CC1", "note": "[Compound 16]", "values": [
      {"measurement": "IC50", "setting": "[2]", "value": 0.287, "unit": "µM"},
      {"measurement": "IC50", "setting": "WSU-DLCL2 cells", "value": 0.675, "unit": "µM"},
      {"measurement": "IC50", "setting": "[1]", "value": 0.00596, "unit": "µM"}
    ]},
    {"molecule": "CCN(c1cc(-c2cnc(OC)cn2)cc(C(=O)NCc2c(C)cc(C)[nH]c2=O)c1C)[C@H]1CC[C@H](N(C)CCOC)CC1", "note": "[Compound 17]", "values": [
      {"measurement": "IC50", "setting": "[2]", "value": 0.402, "unit": "µM"},
      {"measurement": "IC50", "setting": "WSU-DLCL2 cells", "value": 0.507, "unit": "µM"},
      {"measurement": "IC50", "setting": "[1]", "value": 0.0129, "unit": "µM"}
    ]},
    {"molecule": "CCN(c1cc(-c2cncnc2)cc(C(=O)NCc2c(C)cc(C)[nH]c2=O)c1C)[C@H]1CC[C@H](N(C)CCOC)CC1", "note": "[Compound 21]", "values": [
      {"measurement": "IC50", "setting": "[2]", "value": 0.84, "unit": "µM"},
      {"measurement": "IC50", "setting": "WSU-DLCL2 cells", "value": 1.39, "unit": "µM"},
      {"measurement": "IC50", "setting": "[1]", "value": 0.0101, "unit": "µM"}
    ]},
    {"molecule": "CCN(c1cc(C2CCOCC2)cc(C(=O)NCc2c(C)cc(C)[nH]c2=O)c1C)[C@H]1CC[C@H](N(C)CCOC)CC1", "note": "[Compound 25]", "values": [
      {"measurement": "IC50", "setting": "[2]", "value": 0.65, "unit": "µM"},
      {"measurement": "IC50", "setting": "WSU-DLCL2 cells", "value": 2.22, "unit": "µM"},
      {"measurement": "IC50", "setting": "[1]", "value": 0.0089, "unit": "µM"}
    ]}
  ]
}
